Results as given in publication PMC7761830, “Structure-Based Virtual Screening of Ultra-Large Library Yields Potent Antagonists for a Lipid GPCR” (Biomolecules, 2020).

Tests used:
wild-type CysLT1R = target: T1, wild-type CysLT1R (Homo sapiens, UniProt Q9Y271); test: IP1 production assay, antagonist mode, co-stimulation with EC80 LTD4; type: cell-based; conditions: for inhibition at 30 µM: HEK293, compound 30 µM, LTD4 at EC80, HEK293, wild-type CysLT1R, read-out: inhibition of LTD4-induced IP1 production, single-concentration screen; for Emax: HEK293, read-out: CysLT1R (LTD4) % Max Inhibition ± SEM
T1 construct: expressed in transfected cells; host or cells: HEK293 (ATCC CRL-1573), transient transfection with Lipofectamine 3000
T1 sequence (Q9Y271 1-337): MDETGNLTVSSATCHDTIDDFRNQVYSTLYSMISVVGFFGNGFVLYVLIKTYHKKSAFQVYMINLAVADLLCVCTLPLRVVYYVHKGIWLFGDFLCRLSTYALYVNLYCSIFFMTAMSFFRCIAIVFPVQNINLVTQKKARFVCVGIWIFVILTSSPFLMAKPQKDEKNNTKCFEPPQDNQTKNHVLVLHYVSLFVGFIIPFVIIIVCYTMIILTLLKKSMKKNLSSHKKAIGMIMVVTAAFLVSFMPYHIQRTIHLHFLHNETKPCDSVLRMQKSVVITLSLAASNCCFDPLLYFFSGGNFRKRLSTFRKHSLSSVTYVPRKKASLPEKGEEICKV
Experimental: (§1) For this assay, we used the Cisbio IP-One kit as previously described. […] At 48 h post-transfection, the media was removed and the cells were washed with fresh Hank’s Balanced Salt Solution (HBSS). […] After compound stimulation, the cells were incubated for 1 h at 37 °C and stimulated with IP1-D2 and Ab-Crypt reagents in Lysis Buffer. The cells were then incubated at room temperature for an additional hour. […] Normalized data were plotted using either the three-parameter or four-parameter EC50/IC50 fits of GraphPad Prism 8 (San Diego). […] Data represent the means ± SEM of at least three independent experiments performed in quadruplicate.

wild-type CysLT2R = target: T2, wild-type CysLT2R (Homo sapiens, UniProt Q9NS75); test: as above; type: cell-based; conditions: for inhibition at 30 µM: HEK293, compound 30 µM, LTD4 at EC80, HEK293, wild-type CysLT2R, read-out: inhibition of LTD4-induced IP1 production, single-concentration screen; for Emax: HEK293, read-out: CysLT2R (LTD4) % Max Inhibition ± SEM
T2 construct: expressed in transfected cells; host or cells: HEK293 (ATCC CRL-1573), transient transfection with Lipofectamine 3000
T2 sequence (Q9NS75 1-346): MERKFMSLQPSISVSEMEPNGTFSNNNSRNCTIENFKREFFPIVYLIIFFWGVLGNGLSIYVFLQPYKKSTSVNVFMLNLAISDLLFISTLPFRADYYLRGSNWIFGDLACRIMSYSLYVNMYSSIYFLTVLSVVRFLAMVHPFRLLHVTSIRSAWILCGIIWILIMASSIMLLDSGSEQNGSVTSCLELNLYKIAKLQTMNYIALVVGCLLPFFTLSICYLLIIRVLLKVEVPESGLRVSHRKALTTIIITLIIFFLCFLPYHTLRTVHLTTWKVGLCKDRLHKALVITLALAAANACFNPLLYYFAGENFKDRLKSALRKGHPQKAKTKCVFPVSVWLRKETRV
Experimental: as §1

SMILES | remaining activity at 30 µM (wild-type CysLT1R) | remaining activity at 30 µM (wild-type CysLT2R) | inhibition at 30 µM (wild-type CysLT1R) | Emax (wild-type CysLT1R) | inhibition at 30 µM (wild-type CysLT2R) | Emax (wild-type CysLT2R)
NC(=O)c1ccc(NC(=O)CCCCC2SCC3NC(=O)NC32)cc1 (stereo not shown) [BRI-12301] | 91.5% | 88.1% |  |  |  | 
O=C(O)CCC1CCCCN1C(=O)C1CCc2ncncc2C1 (stereo not shown) [BRI-12302] | 87.4% | 70% |  |  |  | 
Cn1cc(S(=O)(=O)N[C@@H]2CC[C@H](C(=O)O)C2)cc1C(N)=O [BRI-12303] | 77.9% | 86.5% |  |  |  | 
O=C(O)c1c(F)cccc1NS(=O)(=O)N1CCc2ccccc2C1 [BRI-12304] | 83.8% | 106% |  |  |  | 
O=C(O)CC(NC(=O)Cn1ncc2ccccc21)c1ccc(F)cc1 (stereo not shown) [BRI-12305] | 93.1% | 109% |  |  |  | 
C[C@@H]1C[C@H](C(=O)Nc2cccc(NC(=O)c3cccs3)c2)O[C@H]1C(=O)O [BRI-12306] | 81.2% | 112% |  |  |  | 
O=C(Nc1ccccc1C(=O)N1CCN2C(=O)NC(=O)C2C1)c1cccs1 (stereo not shown) [BRI-12307] | 84.6% | 110% |  |  |  | 
CC1CC(C(=O)O)CN(C(=O)Nc2cccc(NC(=O)c3ccccc3)c2)C1 (stereo not shown) [BRI-12308] | 95.6% | 101% |  |  |  | 
O=C(O)[C@@H]1CC[C@H](C(=O)Nc2cccc(-c3nc4ccccc4[nH]3)c2)C1 [BRI-12309] | 87.8% | 87.4% |  |  |  | 
O=C(O)CCC1CCCCN1C(=O)Cc1c[nH]c2cc(F)ccc12 (stereo not shown) [BRI-12310] | 77.3% | 91.6% |  |  |  | 
O=C(O)CC(NC(=O)c1ccc(Cl)c(N2CCNC2=O)c1)c1ccccc1 (stereo not shown) [BRI-12311] | 77.5% | 91% |  |  |  | 
O=C(Nc1ccc2c(c1)COC2)N1CCCCC1c1cn[nH]c1 (stereo not shown) [BRI-12312] | 77.4% | 87.2% |  |  |  | 
O=C(O)CNC(=O)Cc1ccc(NC(=O)c2n[nH]c3ccccc23)cc1 [BRI-12313] | 88.6% | 110% |  |  |  | 
O=C(O)CSc1nc2ccccc2c2nc(CCc3ccccc3)nn12 [BRI-12314] | 66.7% | 96.9% |  |  |  | 
COc1ccc(C2=NN(C(=O)CCC(=O)O)C(c3cccs3)C2)c(O)c1 (stereo not shown) [BRI-12316] | 91% | 90% |  |  |  | 
O=C(O)CNC(=O)c1ccc(NC(=O)c2cc3ccccn3c2)cc1 [BRI-12317] | 86.4% | 89.2% |  |  |  | 
CC(=O)Nc1ccccc1OS(=O)(=O)c1cccc2cc(C)cnc12 [BRI-12318] | 74.1% | 88.2% |  |  |  | 
CC(=O)c1ccc(OCC(=O)NC(CC(=O)O)c2cccs2)cc1 (stereo not shown) [BRI-12319] | 76.4% | 78.4% |  |  |  | 
O=C(O)CCN(CC1CCCO1)C(=O)c1cc(-c2ccccc2Cl)[nH]n1 (stereo not shown) [BRI-12320] | 81.4% | 90.5% |  |  |  | 
O=C(NC1CCCC1)c1ccc(NC(=O)C2C3C=CC(C3)C2C(=O)O)cc1 (stereo not shown) [BRI-12321] | 87.8% | 95.1% |  |  |  | 
CNC(=O)c1cccc(NC(=O)CN2c3cccc4cccc(c34)S2(=O)=O)c1 [BRI-12322] | 69.8% | 79.1% |  |  |  | 
O=C(O)CNC(=O)c1ccc(NS(=O)(=O)c2cccs2)cc1 [BRI-12323] | 80.5% | 100% |  |  |  | 
CC1=C(C(=O)Nc2ccccc2)C(c2ccncc2)n2nc(CCCO)nc2N1 (stereo not shown) [BRI-12325] | 76.1% | 79.3% |  |  |  | 
C[S+]([O-])Cc1cccc(NC(=O)CC2(C(=O)O)Cc3ccccc3C2)c1 (stereo not shown) [BRI-12326] | 79.3% | 71% |  |  |  | 

Second part, the compound after the results:

remaining activity at 30 µM (wild-type CysLT1R) | remaining activity at 30 µM (wild-type CysLT2R) | inhibition at 30 µM (wild-type CysLT1R) | Emax (wild-type CysLT1R) | inhibition at 30 µM (wild-type CysLT2R) | Emax (wild-type CysLT2R) | SMILES
68.5% | 73.4% |  |  |  |  | Cn1cc(C(N)=O)c(NC(=O)CCc2cccc(C(F)(F)F)c2)n1 [BRI-12327]
21% | 38.1% | ≥ 50% | 33 ± 8% | ≥ 50% | 5 ± 7% | CC1(c2ccc(C(=O)Nc3nc(-c4ccccc4)cs3)cc2)NC(=O)NC1=O (stereo not shown) [BRI-12328]
88.8% | 87.8% |  |  |  |  | O=C(O)CNC(=O)c1ccc(NC(=O)C2Cc3cc(F)ccc3O2)cc1 (stereo not shown) [BRI-12329]
72.1% | 93.4% |  |  |  |  | NC(=O)COc1cccc(C(=O)NC(CC(=O)O)c2ccc(Cl)c(F)c2)c1 (stereo not shown) [BRI-12330]
84.3% | 92.8% |  |  |  |  | CN(CC(=O)Nc1ccc2[nH]ncc2c1)C1=NS(=O)(=O)c2ccccc21 [BRI-12331]
96.7% | 91.2% |  |  |  |  | O=C(c1ccc2nnnn2c1)N1CC=C(c2c[nH]c3ccccc23)CC1 [BRI-12332]
77.5% | 70.5% |  |  |  |  | Cc1cccc(-n2nnc(C(=O)Nc3ccc4c(c3)NC(=O)CO4)c2C)c1 [BRI-12333]
47.3% | 57.2% | ≥ 50% | 46 ± 15% | ≥ 50% | 21 ± 8% | Cc1cc(O)c(C(=O)O)cc1S(=O)(=O)Nc1ccc(N2CCCC2)c(F)c1 [BRI-12334]
73.8% | 74.8% |  |  |  |  | O=C1COc2ccc(C(=O)Cn3cnc4sc5c(c4c3=O)CCC5)cc2N1 [BRI-12335]
77.3% | 92.1% |  |  |  |  | CC1CC1C(=O)NCCC(=O)Nc1cccc(Cl)c1-n1cncn1 (stereo not shown) [BRI-12336]
72% | 91.3% |  |  |  |  | Cn1c(Cn2cc(-c3nnco3)ccc2=O)nc2cc(Cl)ccc21 [BRI-12337]
66.4% | 95.5% |  |  |  |  | O=C1CCc2cc(NC(=O)C(=O)NCCc3ccc4c(c3)OCO4)ccc2N1 [BRI-12338]
82% | 99.8% |  |  |  |  | CC(C)c1c(C(=O)Nc2ccc3[nH]c(=O)[nH]c3c2)cnn1-c1ccccn1 [BRI-12339]
70.2% | 78.9% |  |  |  |  | O=C(O)COc1ccc(C=Cc2ccc3cccc(O)c3n2)cc1 [BRI-12340]
69.5% | 61.4% |  |  |  |  | O=C(Cn1c(=O)[nH]c(=O)c2ccccc21)N1CCc2[nH]c3ccc(F)cc3c2C1 [BRI-12341]
71.7% | 81.2% |  |  |  |  | CC(Sc1n[nH]c(=O)n1C1CC1)C(=O)c1c[nH]c2ccccc12 (stereo not shown) [BRI-12342]
73.7% | 88.9% |  |  |  |  | CC(=O)c1cc2c(cc1NC(=O)COc1ccc(Cl)cc1C(N)=O)OCO2 [BRI-12343]
72.5% | 96.8% |  |  |  |  | O=C(O)c1csc(S(=O)(=O)Nc2cccc(NC(=O)c3ccco3)c2)c1 [BRI-12344]
75.3% | 101% |  |  |  |  | O=C(CC1SC(c2cc3ccccc3oc2=O)=NC1=O)Nc1ccc(F)cc1 (stereo not shown) [BRI-12345]
66.6% | 90.6% |  |  |  |  | O=C(NCC(F)(F)F)c1cccc(NC(=O)C2C3C=CC(C3)C2C(=O)O)c1 (stereo not shown) [BRI-12346]
79.7% | 104% |  |  |  |  | CC(Sc1nnc(-c2c[nH]c3ccccc23)n1C1CC1)C(=O)NC(N)=O (stereo not shown) [BRI-12347]
89.5% | 107% |  |  |  |  | COc1ccc(C2=NN(C(=O)CCC(=O)O)C(c3cccs3)C2)cc1 (stereo not shown) [BRI-12348]
